Reference: PubChem BioAssay AID1845194 (Molecular Pharmacology Branch, DTP, NCI, 2023)
Values joined by “and” are separate entries in the source; they are usually repeats but may differ in a detail not shown here. Equal values may be shown once.

System: 287954-098-R-J1 tumor spheroid viability
Assay: Anticancer human tumor 287954-098-R-J1 patient-derived Ewing sarcoma cell line growth inhibition
Conditions: spheroids with HUVEC and MSC; for viability, T/C: stronger effect = lower value; active means viability on the fitted dose curve at most 10% of control; inactive means the rest
In short: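 Complex tumor spheroids combined malignant cells with endothelial cells and mesenchymal stem cells. DNA-damaging drugs and DNA repair inhibitors were tested alone and in combination, at half-log dilutions down from clinical Cmax (top 10 microM if Cmax unknown), 0.25% DMSO final.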

[1] = curve of first compound, second compound 30 pM
[2] = curve of first compound, second compound 94.9 pM
[3] = curve of first compound, second compound 0.0003 µM
[4] = curve of first compound, second compound 0.000949 µM
[5] = curve of first compound, second compound 0.003 µM
[6] = second compound 30 pM, first compound 0.0316 µM
[7] = second compound 30 pM, first compound 0.1 µM
[8] = second compound 30 pM, first compound 0.316 µM
[9] = second compound 30 pM, first compound 1 µM
[10] = second compound 30 pM, first compound 3.16 µM
[11] = second compound 30 pM, first compound 10 µM
[12] = second compound 94.9 pM, first compound 0.0316 µM
[13] = second compound 94.9 pM, first compound 0.1 µM
[14] = second compound 94.9 pM, first compound 0.316 µM
[15] = second compound 94.9 pM, first compound 1 µM
[16] = second compound 94.9 pM, first compound 3.16 µM
[17] = second compound 94.9 pM, first compound 10 µM
[18] = second compound 0.0003 µM, first compound 0.0316 µM
[19] = second compound 0.0003 µM, first compound 0.1 µM
[20] = second compound 0.0003 µM, first compound 0.316 µM
[21] = second compound 0.0003 µM, first compound 1 µM
[22] = second compound 0.0003 µM, first compound 3.16 µM
[23] = second compound 0.0003 µM, first compound 10 µM
[24] = second compound 0.000949 µM, first compound 0.0316 µM
[25] = second compound 0.000949 µM, first compound 0.1 µM
[26] = second compound 0.000949 µM, first compound 0.316 µM
[27] = second compound 0.000949 µM, first compound 1 µM
[28] = second compound 0.000949 µM, first compound 3.16 µM
[29] = second compound 0.000949 µM, first compound 10 µM
[30] = second compound 0.003 µM, first compound 0.0316 µM
[31] = second compound 0.003 µM, first compound 0.1 µM
[32] = second compound 0.003 µM, first compound 0.316 µM
[33] = second compound 0.003 µM, first compound 1 µM
[34] = second compound 0.003 µM, first compound 3.16 µM
[35] = second compound 0.003 µM, first compound 10 µM
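Further: spheroids exposed to compound for 7 days before viability readout.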
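Wherever viability, T/C is given: luminescent signal taken as surrogate of viable cell content.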

COc1ccc([C@@H](O)c2cc(-c3ncnc4cc(N5CCOCC5)ccc34)c(F)cc2Cl)nn1 + COc1cc2c(cc1O)CCNC21CSC2c3c(OC(C)=O)c(C)c4c(c3C(COC1=O)N1C(O)C3Cc5cc(C)c(OC)c(O)c5C(C21)N3C)OCO4
< 31.6 nM: IC50 [4] | IC50 [5]
587 nM: IC50 [3]
inactive: viability, T/C [6] 101% | viability, T/C [7] 99.2% | viability, T/C [8] 100% | viability, T/C [9] 109% | viability, T/C [10] 104% | viability, T/C [11] 94.3% | viability, T/C [12] 109% | viability, T/C [13] 112% | viability, T/C [14] 108% | viability, T/C [15] 109% | viability, T/C [16] 108% | viability, T/C [17] 72.8% | viability, T/C [18] 109% | viability, T/C [19] 109% | viability, T/C [20] 103%
active: viability, T/C [21] 4.2% | viability, T/C [22] 0.48% | viability, T/C [23] 1.07% | viability, T/C [24] 0.54% | viability, T/C [25] 0.53% | viability, T/C [26] 0.35% | viability, T/C [27] 0.22% | viability, T/C [28] 0.12% | viability, T/C [29] 0.32% | viability, T/C [30] 0.43% | viability, T/C [31] 0.47% | viability, T/C [32] 0.36% | viability, T/C [33] 0.33% | viability, T/C [34] 0.32% | viability, T/C [35] 0.48%
> 10000 nM: IC50 [1] | IC50 [2]

Cc1cc(C)c(CNC(=O)c2cc(-c3ccc(CN4CCOCC4)cc3)cc3c2cnn3C2CCCC2)c(=O)[nH]1 + COc1cc2c(cc1O)CCNC21CSC2c3c(OC(C)=O)c(C)c4c(c3C(COC1=O)N1C(O)C3Cc5cc(C)c(OC)c(O)c5C(C21)N3C)OCO4
< 31.6 nM: IC50 [4] | IC50 [5]
active: viability, T/C [24] 0.27% | viability, T/C [25] 0.28% | viability, T/C [26] 0.23% | viability, T/C [27] 0.2% | viability, T/C [28] 0.18% | viability, T/C [29] 0.25% | viability, T/C [30] 0.2% | viability, T/C [31] 0.23% | viability, T/C [32] 0.15% | viability, T/C [33] 0.12% | viability, T/C [34] 0.12% | viability, T/C [35] 0.22%
inactive: viability, T/C [6] 106% | viability, T/C [7] 108% | viability, T/C [8] 106% | viability, T/C [9] 107% | viability, T/C [10] 117% | viability, T/C [11] 116% | viability, T/C [12] 106% | viability, T/C [13] 105% | viability, T/C [14] 105% | viability, T/C [15] 109% | viability, T/C [16] 108% | viability, T/C [17] 117% | viability, T/C [18] 96.7% | viability, T/C [19] 109% | viability, T/C [20] 108% | viability, T/C [21] 113% | viability, T/C [22] 103% | viability, T/C [23] 102%
> 10000 nM: IC50 [1] | IC50 [2] | IC50 [3]

COc1ccc([C@@H](O)c2cc(-c3ncnc4cc(N5CCOCC5)ccc34)c(F)cc2Cl)nn1
> 10000 nM: IC50 (curve of compound)
inactive: viability, T/C (compound 0.0316 µM) 96.1% and 101% and 92.6% | viability, T/C (compound 0.1 µM) 96% and 113% and 96.1% | viability, T/C (compound 0.316 µM) 97% and 107% and 92.6% | viability, T/C (compound 1 µM) 105% (2×) and 102% | viability, T/C (compound 3.16 µM) 109% and 98.1% and 100% | viability, T/C (compound 10 µM) 103% and 87.1% and 82.1%

Cc1sc2c(c1C)C(c1ccc(Cl)cc1)=NC(CC(=O)Nc1ccc(O)cc1)c1nnc(C)n1-2 (stereo not drawn) + Cn1nnc2c(C(N)=O)ncn2c1=O
active: viability, T/C (second compound 1 µM, first compound 3 µM) 4.34% | viability, T/C (second compound 3.16 µM, first compound 3 µM) 2.69% | viability, T/C (second compound 10 µM, first compound 3 µM) 2.44% | viability, T/C (second compound 31.6 µM, first compound 3 µM) 1.92% | viability, T/C (second compound 100 µM, first compound 0.949 µM) 2.46% | viability, T/C (second compound 100 µM, first compound 3 µM) 2.14%
1110 nM: IC50 (curve of first compound, second compound 10 µM)
inactive: viability, T/C (second compound 1 µM, first compound 0.00949 µM) 112% | viability, T/C (second compound 1 µM, first compound 0.03 µM) 117% | viability, T/C (second compound 1 µM, first compound 0.0949 µM) 111% | viability, T/C (second compound 1 µM, first compound 0.3 µM) 101% | viability, T/C (second compound 1 µM, first compound 0.949 µM) 50.2% | viability, T/C (second compound 3.16 µM, first compound 0.00949 µM) 110% | viability, T/C (second compound 3.16 µM, first compound 0.03 µM) 113% | viability, T/C (second compound 3.16 µM, first compound 0.0949 µM) 123% | viability, T/C (second compound 3.16 µM, first compound 0.3 µM) 91.9% | viability, T/C (second compound 3.16 µM, first compound 0.949 µM) 25.9% | viability, T/C (second compound 10 µM, first compound 0.00949 µM) 113% | viability, T/C (second compound 10 µM, first compound 0.03 µM) 122% | viability, T/C (second compound 10 µM, first compound 0.0949 µM) 122% | viability, T/C (second compound 10 µM, first compound 0.3 µM) 100% | viability, T/C (second compound 10 µM, first compound 0.949 µM) 58.3% | viability, T/C (second compound 31.6 µM, first compound 0.00949 µM) 114% | viability, T/C (second compound 31.6 µM, first compound 0.03 µM) 130% | viability, T/C (second compound 31.6 µM, first compound 0.0949 µM) 121% | viability, T/C (second compound 31.6 µM, first compound 0.3 µM) 113% | viability, T/C (second compound 31.6 µM, first compound 0.949 µM) 13.7% | viability, T/C (second compound 100 µM, first compound 0.00949 µM) 105% | viability, T/C (second compound 100 µM, first compound 0.03 µM) 115% | viability, T/C (second compound 100 µM, first compound 0.0949 µM) 98.2% | viability, T/C (second compound 100 µM, first compound 0.3 µM) 12.2%
954 nM: IC50 (curve of first compound, second compound 1 µM)
181 nM: IC50 (curve of first compound, second compound 100 µM)
624 nM: IC50 (curve of first compound, second compound 3.16 µM) | IC50 (curve of first compound, second compound 31.6 µM)

COc1cc2c(cc1O)CCNC21CSC2c3c(OC(C)=O)c(C)c4c(c3C(COC1=O)N1C(O)C3Cc5cc(C)c(OC)c(O)c5C(C21)N3C)OCO4 (stereo not drawn)
inactive: viability, T/C (compound 30 pM) 106% [middle of 10 runs] | viability, T/C (compound 94.9 pM) 107% [middle of 10 runs] | viability, T/C (compound 0.0003 µM) 105% [middle of 10 runs]
0.548 nM [middle of 9 runs]: IC50 (compound alone, run of 10/25/2019)
active: viability, T/C (compound 0.000949 µM) 0.29% [middle of 9 runs] | viability, T/C (compound 0.003 µM) 0.17% [middle of 8 runs]
